Legend:
[1] = Dye solubility in water at 20° C., determined spectroscopically; assay type: physicochemical; conditions: heated at 50° C. 1 hour, cooled to 20° C., filtered
Method: The solubilities of the dyes according to the invention were determined as follows:
An excess of dye was heated at 50° C. in water with stirring for one hour. The mixture was then cooled down to 20° C. and filtered, and the dye content of the clear solution was determined spectroscopically.

[2] = Absorption maximum (λ max) in H2O; assay type: physicochemical

Solubility (in g per 100 ml) [1] [g per 100 ml]	λ max (nm) in H2O [2] [nm]	Structure (SMILES)
34	401	COc1cc(N=Nc2cc(S(=O)(=O)O)c3cccc(S(=O)(=O)O)c3c2)c(C)cc1Nc1nc(SCCCS(=O)(=O)O)nc(SCCCS(=O)(=O)O)n1 [Compound 100]
43	518	Nc1ccc2cc(S(=O)(=O)O)cc(O)c2c1N=Nc1ccc(Nc2nc(SCCCS(=O)(=O)O)nc(SCCCS(=O)(=O)O)n2)cc1S(=O)(=O)O [Compound 118]
–	542	COc1cc(S(=O)(=O)O)c(N=Nc2c(NCCC#N)ccc3cc(S(=O)(=O)O)cc(O)c23)cc1Nc1nc(SCCCS(=O)(=O)O)nc(SCCCS(=O)(=O)O)n1 [Compound 121]
–	529	Cc1cc(N=Nc2c(Nc3c(C)cccc3C)ccc3cc(S(=O)(=O)O)cc(O)c23)c(S(=O)(=O)O)cc1Nc1nc(SCCCS(=O)(=O)O)nc(SCCCS(=O)(=O)O)n1 [Compound 120]
30	383	Cc1cc(Nc2nc(SCCCS(=O)(=O)O)nc(SCCCS(=O)(=O)O)n2)ccc1N=Nc1cc(S(=O)(=O)O)c2cccc(S(=O)(=O)O)c2c1 [Compound 103]
–	530	CCCCCC(=O)Nc1cc(S(=O)(=O)O)cc2cc(S(=O)(=O)O)c(N=Nc3cc(Nc4nc(SCCCS(=O)(=O)O)nc(SCCCS(=O)(=O)O)n4)c(OC)cc3S(=O)(=O)O)c(O)c12 [Compound 109]
–	543	Cc1ccc(N=Nc2c(S(=O)(=O)O)cc3cc(S(=O)(=O)O)cc(Nc4nc(SCCCS(=O)(=O)O)nc(SCCCS(=O)(=O)O)n4)c3c2O)c(S(=O)(=O)O)c1 [Compound 115]
–	555	COc1ccc(N=Nc2c(S(=O)(=O)O)cc3cc(S(=O)(=O)O)cc(Nc4nc(SCCCS(=O)(=O)O)nc(SCCCS(=O)(=O)O)n4)c3c2O)cc1S(=O)(=O)O [Compound 116]
–	383	COc1cc(N=Nc2cccc(S(=O)(=O)O)c2)c(C)cc1Nc1nc(SCCCCS(=O)(=O)O)nc(SCCCCS(=O)(=O)O)n1 [Compound 104]
–	394	CC(=O)Nc1cc(Nc2nc(SCCCS(=O)(=O)O)nc(SCCCS(=O)(=O)O)n2)ccc1N=Nc1cc(S(=O)(=O)O)c2cccc(S(=O)(=O)O)c2c1 [Compound 102]

The next lines start with the molecule.

Structure (SMILES)	Solubility (in g per 100 ml) [1] [g per 100 ml]	λ max (nm) in H2O [2] [nm]
O=S(=O)(O)CCCSc1nc(Nc2ccc(S(=O)(=O)O)c3cc(S(=O)(=O)O)c(N=Nc4ccc5c(S(=O)(=O)O)cccc5c4S(=O)(=O)O)c(O)c23)nc(SCCCS(=O)(=O)O)n1 [Compound 122]	–	543
CCCCCCNc1nc(NCCCCCC)nc(Nc2cc(S(=O)(=O)O)cc3cc(S(=O)(=O)O)c(N=Nc4ccccc4S(=O)(=O)O)c(O)c23)n1 [dye 5, reference compound]	17	–
COc1cc(N=Nc2c(N)ccc3cc(S(=O)(=O)O)cc(O)c23)c(C)cc1Nc1nc(NCCO)nc(Nc2cccc(S(=O)(=O)O)c2)n1 [dye 1, reference compound]	11	–
O=S(=O)(O)CCCSc1nc(Nc2ccc(N=Nc3c(S(=O)(=O)O)cc4cccc(NS(=O)(=O)c5ccc(Br)cc5)c4c3O)c(S(=O)(=O)O)c2)nc(SCCCS(=O)(=O)O)n1 [Compound 111]	–	526
O=C(Nc1cc(S(=O)(=O)O)cc2cc(S(=O)(=O)O)c(N=Nc3cc(Nc4nc(SCCCS(=O)(=O)O)nc(SCCCS(=O)(=O)O)n4)ccc3S(=O)(=O)O)c(O)c12)c1ccccc1 [Compound 112]	44	512
Cc1ccc(S(=O)(=O)Nc2cc(S(=O)(=O)O)cc3cc(S(=O)(=O)O)c(N=Nc4cc(Nc5nc(SCCCS(=O)(=O)O)nc(SCCCS(=O)(=O)O)n5)ccc4S(=O)(=O)O)c(O)c23)cc1 [Compound 113]	–	527
O=C(O)CCNc1ccc2cc(S(=O)(=O)O)cc(O)c2c1N=Nc1ccc(Nc2nc(SCCCS(=O)(=O)O)nc(SCCCS(=O)(=O)O)n2)cc1S(=O)(=O)O [Compound 119]	–	535

Reference: US5844100A, “Ink compositions containing azo dyes for ink jet printing” (Ilford Imaging Switzerland GmbH, priority 1995, dated 1998)
